# From ChEMBL document CHEMBL1201862, “PubChem BioAssay data set” (2004)
# Activity calls are given as the source filed them.
# How the values were obtained:
# [1] = molecular target: Guanyl-specific ribonuclease T1 (Aspergillus oryzae (strain ATCC 42149 / RIB 40), UniProt P00651); assay: RNase T1 inhibitors, dose response, counter-screen for TPT1 inhibitor project, biochemical, fluorescence polarization, 1536-well (AID 2167)
# [2] = molecular target: Likely tRNA 2'-phosphotransferase (Candida albicans (strain SC5314 / ATCC MYA-2876) (Yeast), UniProt Q5A7N4); assay: TPT1 tRNA phosphotransferase inhibitors, dose response, biochemical, fluorescence polarization (AID 2160)
# Bcl-2-like protein 10 = Bcl-2-like protein 10 (Homo sapiens, UniProt Q9HD36); assay: displacers of TR3 peptide from Bcl-B, primary screen, selectivity assay for Bfl-1 inhibitor project, biochemical, fluorescence polarization, FITC-TR3 peptide (AID 748);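 also: fluorescence polarization from a fluorescein-labelled TR3 peptide binding purified Bcl-B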
# [3] = molecular target: T1, Heat shock factor protein 1 (Mus musculus, UniProt P38532); assay: inhibition of MG132-induced HSE-luciferase signal, confirmation, cell-based, NIH3T3, luminescence, dose retest (AID 2382); assay type: functional;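 also: NIH3T3 fibroblasts with HSF1-driven luciferase reporter stressed by proteasome inhibitor MG132; luminescence from HSF1-driven luciferase expression after 8 hours of MG132 stress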
# T1 sequence (P38532 whole entry): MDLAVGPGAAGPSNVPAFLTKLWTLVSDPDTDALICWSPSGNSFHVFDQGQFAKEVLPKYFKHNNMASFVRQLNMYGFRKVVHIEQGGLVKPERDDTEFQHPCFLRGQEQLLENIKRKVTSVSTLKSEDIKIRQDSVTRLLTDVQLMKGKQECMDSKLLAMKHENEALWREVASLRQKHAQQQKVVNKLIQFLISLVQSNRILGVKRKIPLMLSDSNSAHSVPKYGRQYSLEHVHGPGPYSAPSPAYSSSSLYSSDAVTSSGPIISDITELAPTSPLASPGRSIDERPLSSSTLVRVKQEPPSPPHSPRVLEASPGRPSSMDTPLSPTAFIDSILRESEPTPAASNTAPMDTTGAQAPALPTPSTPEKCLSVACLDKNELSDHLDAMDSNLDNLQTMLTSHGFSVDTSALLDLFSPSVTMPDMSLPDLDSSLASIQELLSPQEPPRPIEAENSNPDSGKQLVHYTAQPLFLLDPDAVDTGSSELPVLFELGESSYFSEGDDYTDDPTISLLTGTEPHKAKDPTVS
# [4] = molecular target: Lysosomal acid glucosylceramidase (Homo sapiens, UniProt P04062); assay: Dose response cell-based high throughput screening assay to identify enhancers of beta-glucosidase activity. [Related pubchem assays: 784 ]; assay type: functional
# [5] = NIH-3T3 fibroblast cytotoxicity, dose response, cytotoxicity control, cell-based, fluorescence, Alamar Blue, secondary assay (AID 2327); assay type: functional;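 also: NIH-3T3 mouse fibroblasts cultured with fluconazole at 8 µg/mL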
# [6] = molecular target: Transitional endoplasmic reticulum ATPase (Homo sapiens, UniProt P55072, C522A); assay: C522A mutant p97 ATPase inhibitors, dose response, counter-screen for p97 inhibitor project, biochemical, luminescence (AID 1544)
# [7] = C. albicans growth with fluconazole, confirmation, fluorescence, retest (AID 2467); assay type: functional, cell-based
# [8] = molecular target: Transitional endoplasmic reticulum ATPase (Homo sapiens, UniProt P55072); assay: p97 ATPase inhibitors, dose response, biochemical (AID 1534)
# Trypsin = Trypsin (Sus scrofa, UniProt P00761); assay: porcine trypsin inhibitors, dose response, selectivity assay for Rce1 protease inhibitor project, biochemical, quenched peptide fluorescence, cherry-pick (AID 488789)
# Bcl-2-related protein A1 = molecular target: T2, Bcl-2-related protein A1 (Mus musculus, UniProt Q07440); assay type: functional;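 also: confirmatory dose–response counterscreen on Bfl-1, used to check hits from a UBC13 polyubiquitin inhibitor campaign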
# T2 sequence (Q07440 whole entry): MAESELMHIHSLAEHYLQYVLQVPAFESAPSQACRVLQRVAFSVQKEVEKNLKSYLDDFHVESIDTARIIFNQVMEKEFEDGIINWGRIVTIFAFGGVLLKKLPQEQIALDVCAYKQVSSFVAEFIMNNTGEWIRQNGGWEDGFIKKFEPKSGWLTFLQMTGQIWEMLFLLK
# [9] = molecular target: T3, Ubiquitin-conjugating enzyme E2 N (Homo sapiens, UniProt P61088); assay type: functional
# T3 sequence (P61088 whole entry): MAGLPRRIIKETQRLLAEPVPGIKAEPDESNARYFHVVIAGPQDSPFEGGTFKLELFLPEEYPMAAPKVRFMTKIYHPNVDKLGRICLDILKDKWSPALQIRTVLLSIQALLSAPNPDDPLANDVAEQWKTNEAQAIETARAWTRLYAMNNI
# CAAX prenyl protease 2 [10] = molecular target: T4, CAAX prenyl protease 2 (Saccharomyces cerevisiae S288c, UniProt Q03530); assay type: biochemical
# T4 sequence (Q03530 whole entry): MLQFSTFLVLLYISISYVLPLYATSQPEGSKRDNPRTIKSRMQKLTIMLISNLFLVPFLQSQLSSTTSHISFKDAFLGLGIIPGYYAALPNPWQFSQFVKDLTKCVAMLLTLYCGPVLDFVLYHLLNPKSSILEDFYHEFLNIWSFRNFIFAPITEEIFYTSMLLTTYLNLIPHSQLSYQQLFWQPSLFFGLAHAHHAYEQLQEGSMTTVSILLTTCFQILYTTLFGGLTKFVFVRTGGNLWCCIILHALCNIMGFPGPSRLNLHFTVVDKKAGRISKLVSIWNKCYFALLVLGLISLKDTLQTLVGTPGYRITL
# [11] = molecular target: T3, Ubiquitin-conjugating enzyme E2 N; assay type: functional; remark: listed apart in the source
# [12] = molecular target: T5, Replicative DNA helicase DnaB (Mycobacterium tuberculosis, UniProt P9WMR3); assay: DnaB intein splicing inhibitors, dose response, biochemical, cell-free fluorescence (AID 449749); assay type: functional
# T5 sequence (P9WMR3 whole entry): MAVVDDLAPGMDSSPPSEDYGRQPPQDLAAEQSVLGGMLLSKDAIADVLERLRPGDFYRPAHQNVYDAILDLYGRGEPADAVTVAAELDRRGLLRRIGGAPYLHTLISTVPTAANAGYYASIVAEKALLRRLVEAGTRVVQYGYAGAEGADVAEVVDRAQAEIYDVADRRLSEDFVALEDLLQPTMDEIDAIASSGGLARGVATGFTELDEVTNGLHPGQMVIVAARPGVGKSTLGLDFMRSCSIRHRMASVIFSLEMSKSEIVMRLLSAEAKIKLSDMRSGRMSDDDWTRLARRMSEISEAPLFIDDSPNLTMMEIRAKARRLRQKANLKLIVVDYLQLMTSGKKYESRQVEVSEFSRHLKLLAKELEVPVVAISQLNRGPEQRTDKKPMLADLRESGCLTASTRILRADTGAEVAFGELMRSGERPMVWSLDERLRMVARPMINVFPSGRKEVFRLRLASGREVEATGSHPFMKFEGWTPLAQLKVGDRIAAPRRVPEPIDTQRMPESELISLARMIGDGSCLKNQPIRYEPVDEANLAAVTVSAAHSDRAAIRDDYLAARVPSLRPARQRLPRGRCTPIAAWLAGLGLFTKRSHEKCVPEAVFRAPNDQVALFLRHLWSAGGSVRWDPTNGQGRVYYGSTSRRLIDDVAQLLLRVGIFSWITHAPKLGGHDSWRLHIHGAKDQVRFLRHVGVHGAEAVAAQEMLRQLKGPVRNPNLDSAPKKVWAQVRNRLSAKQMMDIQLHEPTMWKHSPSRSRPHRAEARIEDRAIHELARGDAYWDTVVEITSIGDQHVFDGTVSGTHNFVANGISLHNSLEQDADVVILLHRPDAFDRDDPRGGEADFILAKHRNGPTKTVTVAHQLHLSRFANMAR
# Protein RecA = molecular target: T6, Protein RecA (Mycobacterium tuberculosis, UniProt P9WHJ3); assay: Fluorescence Cell-Free Homogeneous Dose Retest to Identify Inhibitors of RecA-Intein Splicing Activity. [Related pubchem assays (depositor defined):AID2097, AID2223, AID489010, AID492950]; assay type: functional
# T6 sequence (P9WHJ3 whole entry): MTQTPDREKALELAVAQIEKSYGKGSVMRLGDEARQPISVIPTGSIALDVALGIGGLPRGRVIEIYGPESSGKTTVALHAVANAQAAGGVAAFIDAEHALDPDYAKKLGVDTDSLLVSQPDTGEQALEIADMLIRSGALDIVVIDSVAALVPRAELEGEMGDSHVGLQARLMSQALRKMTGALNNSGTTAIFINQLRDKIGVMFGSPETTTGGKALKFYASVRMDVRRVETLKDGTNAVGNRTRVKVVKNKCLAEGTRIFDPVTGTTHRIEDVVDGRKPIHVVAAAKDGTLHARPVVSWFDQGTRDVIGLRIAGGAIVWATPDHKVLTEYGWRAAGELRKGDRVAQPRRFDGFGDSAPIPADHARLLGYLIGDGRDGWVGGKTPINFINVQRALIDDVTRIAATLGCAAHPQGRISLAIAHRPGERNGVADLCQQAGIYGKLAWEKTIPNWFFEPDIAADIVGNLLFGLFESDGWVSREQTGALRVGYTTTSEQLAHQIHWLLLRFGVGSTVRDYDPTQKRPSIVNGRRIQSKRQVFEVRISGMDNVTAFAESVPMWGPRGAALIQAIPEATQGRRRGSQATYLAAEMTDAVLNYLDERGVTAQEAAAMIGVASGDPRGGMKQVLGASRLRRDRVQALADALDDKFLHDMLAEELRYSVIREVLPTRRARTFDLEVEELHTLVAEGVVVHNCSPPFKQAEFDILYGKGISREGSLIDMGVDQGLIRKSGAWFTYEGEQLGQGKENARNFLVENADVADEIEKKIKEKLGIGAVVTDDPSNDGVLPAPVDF
# INS1 = assay: beta cell apoptosis inhibitors, cytokine rescue, dose response, luminescence, retest (AID 449756); assay type: functional, cell-based; details: Rattus norvegicus;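 also: cell death triggered by IL-1 beta plus TNF-alpha plus IFN-gamma mixture; protective hits raise ATP signal compared with cytokine alone wells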
# CAAX prenyl protease 2 [13] = molecular target: T7, CAAX prenyl protease 2 (Homo sapiens, UniProt Q9Y256); assay: human Rce1 protease inhibitors, dose response, biochemical, yeast membranes, quenched-peptide fluorescence, cherry-pick (AID 588849)
# T7 sequence (Q9Y256 whole entry): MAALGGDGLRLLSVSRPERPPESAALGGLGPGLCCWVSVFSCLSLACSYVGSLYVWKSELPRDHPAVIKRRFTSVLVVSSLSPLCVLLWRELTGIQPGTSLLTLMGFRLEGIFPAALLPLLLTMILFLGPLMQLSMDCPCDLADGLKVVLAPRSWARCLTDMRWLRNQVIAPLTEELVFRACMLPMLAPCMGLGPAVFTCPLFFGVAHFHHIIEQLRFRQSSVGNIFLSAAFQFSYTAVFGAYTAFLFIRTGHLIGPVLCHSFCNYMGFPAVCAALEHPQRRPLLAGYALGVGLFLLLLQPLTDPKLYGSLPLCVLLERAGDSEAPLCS
# [14] = molecular target: Cyclin-dependent kinase 5/CDK5 activator 1 (Homo sapiens, UniProt Q00535); assay: CDK5/p35 kinase inhibitors, dose response, biochemical, cherry-picked samples, set 2 (AID 504545)
# [15] = molecular target: Voltage-gated N-type calcium channel alpha-1B subunit/Amyloid beta A4 precursor protein-binding family A member 1 (Homo sapiens, UniProt Q00975+Q02410); assay: disruptors of Mint-PDZ/N-type channel peptide interaction – biochemical, HTRF, set 2, SAR follow-up (AID 434980); assay type: functional
# [16] = blockers of SFLLRN-triggered platelet ATP secretion – cell-based, human platelets, luminescence, dry powder, dose response (AID 493100); assay type: functional
# [17] = HEp-2 cell cytotoxicity, dose response, cytotoxicity control for RSV inhibitor project, HTS (AID 2410); assay type: functional; details: human respiratory syncytial virus
# [18] = molecular target: G-protein coupled receptor 35 (Homo sapiens, UniProt Q9HC97); assay: GPR35 antagonists blocking zaprinast-driven arrestin recruitment, primary screen, imaging, U2OS, beta-arrestin-GFP, zaprinast agonist (AID 2058); assay type: functional;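 also: antagonist potency meaning inhibition of agonist-induced arrestin redistribution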
# [19] = test system: Streptococcus sp. 'group A'; assay: growth inhibition of control SK(-) GAS strain, dose response, counter-screen for streptokinase expression inhibitor project, luminescence, kanamycin, BacTiterGlo, confirmation (AID 1900); assay type: functional, organism-based
# Streptokinase A = molecular target: T8, Streptokinase A (Streptococcus pyogenes serotype M1, UniProt P10520); assay: S. pyogenes streptokinase expression inhibitors, potency, dose response, plasminogen activation absorbance, OD405 (AID 1914); assay type: functional, Streptococcus pyogenes M1 GAS;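 also: secreted streptokinase activity via plasminogen activation per viability signal from cell pellet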
# T8 sequence (P10520 whole entry): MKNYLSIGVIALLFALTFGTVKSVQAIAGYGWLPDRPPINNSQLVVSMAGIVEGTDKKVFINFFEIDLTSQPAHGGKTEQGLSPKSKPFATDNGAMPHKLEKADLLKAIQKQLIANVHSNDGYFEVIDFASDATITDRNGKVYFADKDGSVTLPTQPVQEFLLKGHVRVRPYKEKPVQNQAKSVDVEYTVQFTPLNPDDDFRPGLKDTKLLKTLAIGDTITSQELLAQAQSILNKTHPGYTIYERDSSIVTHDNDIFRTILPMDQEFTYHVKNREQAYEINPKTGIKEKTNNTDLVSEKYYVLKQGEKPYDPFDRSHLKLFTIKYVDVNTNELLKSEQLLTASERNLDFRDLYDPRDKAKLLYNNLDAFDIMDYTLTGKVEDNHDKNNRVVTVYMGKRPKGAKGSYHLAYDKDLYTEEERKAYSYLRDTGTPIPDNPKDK
# Streptococcus = assay: Group A Streptococcus viability loss, dose response, counter-screen for streptokinase expression inhibitor project, luminescence, BacTiterGlo (AID 1915); assay type: functional, organism-based;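 also: potency for reduction of bacterial viability or growth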
# Sequence of Guanyl-specific ribonuclease T1 (P00651 whole entry): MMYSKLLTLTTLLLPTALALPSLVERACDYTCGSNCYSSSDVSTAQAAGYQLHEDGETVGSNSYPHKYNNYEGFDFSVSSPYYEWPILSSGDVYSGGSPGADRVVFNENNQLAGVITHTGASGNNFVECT
# Sequence of Transitional endoplasmic reticulum ATPase (Homo sapiens, UniProt P55072, C522A) (P55072 2-806 C522A limits assumed): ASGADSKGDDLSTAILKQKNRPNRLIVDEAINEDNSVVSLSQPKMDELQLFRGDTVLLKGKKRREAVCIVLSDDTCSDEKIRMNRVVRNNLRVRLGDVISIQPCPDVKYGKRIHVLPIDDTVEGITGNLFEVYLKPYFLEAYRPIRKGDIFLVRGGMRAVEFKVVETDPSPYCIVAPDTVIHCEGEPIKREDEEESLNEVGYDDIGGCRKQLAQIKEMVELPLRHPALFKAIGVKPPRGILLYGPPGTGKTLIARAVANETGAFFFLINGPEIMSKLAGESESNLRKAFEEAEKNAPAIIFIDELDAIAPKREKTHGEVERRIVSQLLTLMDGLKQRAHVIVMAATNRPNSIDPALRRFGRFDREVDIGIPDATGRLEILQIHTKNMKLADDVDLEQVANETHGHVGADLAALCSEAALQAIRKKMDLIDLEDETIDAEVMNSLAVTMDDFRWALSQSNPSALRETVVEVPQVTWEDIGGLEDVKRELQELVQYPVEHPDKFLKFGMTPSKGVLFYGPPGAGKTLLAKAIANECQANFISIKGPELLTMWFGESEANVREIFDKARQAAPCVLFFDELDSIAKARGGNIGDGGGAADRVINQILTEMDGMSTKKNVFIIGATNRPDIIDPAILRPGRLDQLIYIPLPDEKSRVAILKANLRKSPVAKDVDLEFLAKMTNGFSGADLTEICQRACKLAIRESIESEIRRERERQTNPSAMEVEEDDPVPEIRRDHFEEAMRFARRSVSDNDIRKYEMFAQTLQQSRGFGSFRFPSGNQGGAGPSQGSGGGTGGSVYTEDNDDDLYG
# Sequence of Cyclin-dependent kinase 5/CDK5 activator 1 (Q00535 whole entry): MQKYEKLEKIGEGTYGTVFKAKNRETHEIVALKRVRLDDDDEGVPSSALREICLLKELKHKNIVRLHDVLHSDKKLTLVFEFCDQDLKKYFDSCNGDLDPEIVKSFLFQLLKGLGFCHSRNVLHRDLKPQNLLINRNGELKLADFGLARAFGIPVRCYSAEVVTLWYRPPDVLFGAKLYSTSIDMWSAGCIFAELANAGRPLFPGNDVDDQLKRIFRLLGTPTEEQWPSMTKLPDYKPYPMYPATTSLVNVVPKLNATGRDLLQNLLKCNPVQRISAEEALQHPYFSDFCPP
# Sequence of Cyclin-dependent kinase 5/CDK5 activator 1 (Q15078 whole entry, further chain): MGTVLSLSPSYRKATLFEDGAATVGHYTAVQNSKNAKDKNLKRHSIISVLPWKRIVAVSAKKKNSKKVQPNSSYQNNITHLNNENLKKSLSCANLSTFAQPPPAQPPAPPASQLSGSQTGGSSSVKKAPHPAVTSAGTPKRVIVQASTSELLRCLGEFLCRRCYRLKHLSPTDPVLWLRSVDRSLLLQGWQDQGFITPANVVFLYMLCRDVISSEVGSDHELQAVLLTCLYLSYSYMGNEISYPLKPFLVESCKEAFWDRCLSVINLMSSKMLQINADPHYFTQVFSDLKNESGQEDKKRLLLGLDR
# Sequence of Likely tRNA 2'-phosphotransferase (Q5A7N4 whole entry): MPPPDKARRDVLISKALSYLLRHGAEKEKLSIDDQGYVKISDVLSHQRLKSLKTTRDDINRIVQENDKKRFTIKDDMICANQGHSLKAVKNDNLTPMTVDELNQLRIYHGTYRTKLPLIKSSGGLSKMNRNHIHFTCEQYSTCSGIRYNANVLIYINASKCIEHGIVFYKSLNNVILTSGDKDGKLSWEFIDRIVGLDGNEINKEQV
# Sequence of Lysosomal acid glucosylceramidase (P04062 whole entry): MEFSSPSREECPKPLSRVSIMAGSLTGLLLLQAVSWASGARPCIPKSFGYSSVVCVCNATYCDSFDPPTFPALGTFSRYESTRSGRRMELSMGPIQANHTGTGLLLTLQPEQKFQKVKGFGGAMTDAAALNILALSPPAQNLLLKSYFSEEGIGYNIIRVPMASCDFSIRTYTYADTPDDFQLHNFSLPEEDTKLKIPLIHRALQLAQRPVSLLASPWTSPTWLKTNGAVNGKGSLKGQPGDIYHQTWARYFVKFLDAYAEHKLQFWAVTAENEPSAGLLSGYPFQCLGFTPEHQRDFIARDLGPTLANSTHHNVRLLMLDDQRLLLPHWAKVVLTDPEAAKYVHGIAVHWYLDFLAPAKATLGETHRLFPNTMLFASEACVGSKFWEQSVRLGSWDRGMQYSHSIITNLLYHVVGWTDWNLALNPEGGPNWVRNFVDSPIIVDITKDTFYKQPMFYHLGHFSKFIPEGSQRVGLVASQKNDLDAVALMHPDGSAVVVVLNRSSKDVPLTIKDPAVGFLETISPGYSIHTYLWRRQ
# Sequence of G-protein coupled receptor 35 (Q9HC97 whole entry): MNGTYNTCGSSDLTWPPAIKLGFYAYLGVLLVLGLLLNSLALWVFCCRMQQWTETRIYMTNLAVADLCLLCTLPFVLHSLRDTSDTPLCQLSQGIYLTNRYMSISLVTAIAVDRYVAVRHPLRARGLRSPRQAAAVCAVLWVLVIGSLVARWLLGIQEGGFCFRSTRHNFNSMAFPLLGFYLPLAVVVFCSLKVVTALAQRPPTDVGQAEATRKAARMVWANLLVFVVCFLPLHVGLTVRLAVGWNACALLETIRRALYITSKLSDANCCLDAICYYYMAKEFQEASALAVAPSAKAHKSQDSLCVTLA
# Sequence of Trypsin (P00761 whole entry): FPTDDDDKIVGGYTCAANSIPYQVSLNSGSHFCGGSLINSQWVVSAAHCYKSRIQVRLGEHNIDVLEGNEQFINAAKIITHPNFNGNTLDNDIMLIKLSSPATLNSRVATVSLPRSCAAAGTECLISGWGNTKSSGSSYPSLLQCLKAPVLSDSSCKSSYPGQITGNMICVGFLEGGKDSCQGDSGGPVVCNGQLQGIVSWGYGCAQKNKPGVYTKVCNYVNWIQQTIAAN
# Sequence of Bcl-2-like protein 10 (Q9HD36 whole entry): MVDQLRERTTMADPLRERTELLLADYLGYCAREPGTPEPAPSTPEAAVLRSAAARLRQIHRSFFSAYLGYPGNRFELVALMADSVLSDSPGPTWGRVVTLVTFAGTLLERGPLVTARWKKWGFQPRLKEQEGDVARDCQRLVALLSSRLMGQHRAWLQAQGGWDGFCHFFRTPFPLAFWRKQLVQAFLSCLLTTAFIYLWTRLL
# Sequence of Transitional endoplasmic reticulum ATPase (Homo sapiens, UniProt P55072) (P55072 whole entry): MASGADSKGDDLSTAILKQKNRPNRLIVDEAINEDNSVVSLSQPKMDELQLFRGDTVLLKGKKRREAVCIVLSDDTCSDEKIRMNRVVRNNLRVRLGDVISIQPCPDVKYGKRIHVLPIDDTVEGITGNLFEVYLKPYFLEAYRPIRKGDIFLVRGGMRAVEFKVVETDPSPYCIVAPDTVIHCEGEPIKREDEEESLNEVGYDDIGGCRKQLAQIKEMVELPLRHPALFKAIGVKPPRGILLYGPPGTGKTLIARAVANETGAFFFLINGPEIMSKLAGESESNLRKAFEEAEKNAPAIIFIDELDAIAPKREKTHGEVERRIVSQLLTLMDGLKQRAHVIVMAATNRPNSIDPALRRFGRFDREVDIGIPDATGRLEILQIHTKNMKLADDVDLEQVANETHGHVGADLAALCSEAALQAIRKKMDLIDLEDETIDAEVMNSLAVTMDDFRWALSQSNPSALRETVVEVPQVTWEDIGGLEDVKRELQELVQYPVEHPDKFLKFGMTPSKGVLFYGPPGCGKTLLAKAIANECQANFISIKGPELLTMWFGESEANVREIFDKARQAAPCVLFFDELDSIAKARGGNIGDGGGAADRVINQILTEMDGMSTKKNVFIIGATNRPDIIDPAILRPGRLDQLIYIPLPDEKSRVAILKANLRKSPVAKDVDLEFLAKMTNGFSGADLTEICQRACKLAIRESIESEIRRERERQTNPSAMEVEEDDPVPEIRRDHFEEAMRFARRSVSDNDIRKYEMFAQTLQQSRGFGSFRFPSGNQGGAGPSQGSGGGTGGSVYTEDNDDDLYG
smiles,measurement,setting,value
Cc1ccc(OCCn2cccc2/C=C2/C(=O)NC(=O)N(Cc3ccco3)C2=O)cc1,IC50,[1],> 55.7 µM (not active)
same,IC50,[2],> 55.7 µM (not active)
COc1ccc(NC(=O)c2cc(CN3C(=O)c4ccccc4C3=O)ccc2OC)cn1,IC50,Bcl-2-like protein 10,> 25 µM (inactive)
same,EC50,[3],> 195 µM (not active)
COc1ccc(OC)c(Nc2nc(-c3sc(N)nc3C)cs2)c1,EC50,[4],> 50 µM (not active)
c1ccc(CNc2nc(NCc3ccccc3)c3ccccc3n2)cc1,EC50,[5],> 150 µM (inconclusive)
same,IC50,[6],> 50 µM (not active)
same,EC50,[7],> 38 µM (not active)
same,IC50,[8],> 50 µM (not active)
same,AC50,Trypsin,13.6 µM (active)
same,IC50,Bcl-2-related protein A1,12.4 µM (active)
same,IC50,[9],19.6 µM (active)
same,AC50,CAAX prenyl protease 2 [10],39.5 µM (active)
same,IC50,[11],11 µM (active)
same,AC50,[12],6.13 µM (active)
same,EC50,Protein RecA,7.83 µM (active)
same,AC50,INS1,7.6 µM (active)
same,AC50,CAAX prenyl protease 2 [13],9.69 µM (active)
C=CCNC(=O)c1[nH]nc2c1CC(C(C)(C)CC)CC2 (stereo unspecified),AC50,[14],3.18 µM (active)
O=C(c1cc(-c2ccco2)nc2ccccc12)N1CCc2cccnc21,IC50,[15],> 56.8 µM (inactive)
O=C(N/N=C/c1ccc(NC(=O)C(F)(F)F)cc1)C1CCCC1,AC50,[16],22.3 µM (active)
CCOc1ccc(/C=N/NC(=O)Cc2csc(Nc3cccc(C(F)(F)F)c3)n2)cc1,CC50,[17],12.2 µM (active)
same,IC50,[18],2.1 µM (active)
same,EC50,[19],8.02 µM (active)
same,EC50,Streptokinase A,20.1 µM (active)
same,EC50,Streptococcus,20.2 µM (active)
